In publication PMC11413854, “Reversible Control of Native GluN2B-Containing NMDA Receptors with Visible Light” (ACS Chemical Neuroscience, 2024):
Where “and” joins values, the source holds several entries; their conditions need not be identical. Equal entries are not always repeated. Where two headings read alike, the source gives them in different places.

What was measured:
[1] = target: T1, GluN1/GluN2D (Rattus norvegicus, UniProt P35439+Q62645); test: TEVC on Xenopus oocytes, GluN1/GluN2D diheteromers; type: cell-based; conditions: 1 µM trans-OptoNAM-3 (dark); listed as trans-OptoNAM-3
T1 construct: expressed in transfected cells; host or cells: Xenopus laevis oocytes (nuclear cDNA injection)
Description: (§1) NMDARs exist as multiple subtypes in the brain that are formed by the combination of two GluN1 and either two identical (diheteromers) or different (triheteromers) GluN2 (GluN2A-D) subunits.[1] We assessed the selectivity of trans-OptoNAM-3 (dark PSS) for the other NMDAR subtypes.
(§2) We used cDNA coding for rat GluN1–1a (named GluN1 herein) (GenBank: U08261.1), rat GluN2A (GenBank: D13211.1), mouse GluN2B (GenBank: D10651.2), rat GluA1 flop (GenBank: M36418.2), and rat Myc-GluA2(Q)-flip (GenBank: AF164344.1) cloned into pcDNA3-based expression plasmids. GluK2 (GenBank: Z11548.1) corresponds to the fully RNA-edited version.[80] The GluN2B-ΔNTD construct is from ref[45] and GluN2B–N615K is from ref[81]. Single mutants GluN2B-Q110G and GluN1-L135H were from ref[19]. The GluA2 cDNA contains a Myc tag ([…]) fused between the signal peptide and the N-terminus sequences, and the GluA2 subunit is […] for its Q/R/N site (GluA2(Q)) to allow permeation of homomeric GluA2 receptors.[2] cDNAs coding for rat GluN2C (GenBank: M91563.1) and GluN2D subunits (GenBank: L31611.1) were in prK5 plasmids.
(§3) Expression of recombinant NMDA receptors was obtained by oocyte nuclear coinjection of 37 nL of a mixture of cDNAs (at 30 ng/μL) coding for GluN1–1a and various GluN2 subunits (ratio 1:1). The protocol in ref[43] was followed for the expression of GluN1/GluN2A/GluN2B triheteromers. […]

[2] = target: T2, GluA1 AMPA receptors (Rattus norvegicus, UniProt P19490); test: TEVC on Xenopus oocytes, GluA1 AMPA receptors; type: cell-based; conditions: for Inhibition, individual values: GluA1, single cells
T2 construct: expressed in transfected cells; host or cells: Xenopus laevis oocytes (mRNA injection)
Description: as §2
The expression of recombinant GluA1, GluA2(Q), and GluK2 receptors was obtained by oocyte injection of 50 nL of mRNAs (at 1 μg/μL). mRNAs were generated using the T7 (GluA1 and GluA2) and T3 (GluK2) mMessage mMachine transcription kits (Invitrogen) after cDNA linearization with the SacII restriction enzyme. The injected oocytes were stored in the same conditions as for NMDARs and used 72–96 h postinjection.
TEVC recordings were performed 1–3 days following injection. TEVC recordings were performed using an Oocyte Clamp amplifier OC-725 (Warner Instruments) and computer-controlled via a 1440A Digidata (Molecular Devices). Currents were sampled at 100 Hz and low-pass-filtered at 20 Hz using an 8-pole Bessel filter (900 Series, Frequency Devices Inc.). Data were collected with Clampfit 10.3. During the recording, the cells were continuously perfused with external recording Ringer solution at pH 7.3 (in mM: 100 NaCl, 0.3 BaCl2, 5 HEPES, and 2.5 KCl, pH adjustment to 7.3 by the addition of NaOH). The NMDA currents were induced by simultaneous application of L-glutamate and glycine (agonist solution) at saturating concentration (100 μM each), and DTPA (10 μM) to prevent receptor inhibition by ambient zinc (∼20 nM).[83] A control solution (100 μM glycine and 10 μM DTPA in Ringer pH 7.3) was used for washout of drug and test solutions. AMPA and kainate receptor currents were induced in the same conditions as NMDA currents (100 μM glutamate and glycine + 10 μM DTPA). Oocytes expressing GluK2 kainate receptors were treated with concanavalin A ([…], equivalent to 1.1 mg/mL) during 10 min before recording to decrease receptor desensitization. Unless notified, recordings were performed at a holding potential of −60 mV. All experiments were performed at room temperature. […]

[3] = system: GluN1/GluN2A/GluN2B triheteromers; test: TEVC on Xenopus oocytes, GluN1/GluN2A/GluN2B triheteromers; type: cell-based, rat GluN1, rat GluN2A, mouse GluN2B; conditions: 1 µM trans-OptoNAM-3 (dark)
Description: as §1, §2, §3

T2 sequence (P19490 19-907): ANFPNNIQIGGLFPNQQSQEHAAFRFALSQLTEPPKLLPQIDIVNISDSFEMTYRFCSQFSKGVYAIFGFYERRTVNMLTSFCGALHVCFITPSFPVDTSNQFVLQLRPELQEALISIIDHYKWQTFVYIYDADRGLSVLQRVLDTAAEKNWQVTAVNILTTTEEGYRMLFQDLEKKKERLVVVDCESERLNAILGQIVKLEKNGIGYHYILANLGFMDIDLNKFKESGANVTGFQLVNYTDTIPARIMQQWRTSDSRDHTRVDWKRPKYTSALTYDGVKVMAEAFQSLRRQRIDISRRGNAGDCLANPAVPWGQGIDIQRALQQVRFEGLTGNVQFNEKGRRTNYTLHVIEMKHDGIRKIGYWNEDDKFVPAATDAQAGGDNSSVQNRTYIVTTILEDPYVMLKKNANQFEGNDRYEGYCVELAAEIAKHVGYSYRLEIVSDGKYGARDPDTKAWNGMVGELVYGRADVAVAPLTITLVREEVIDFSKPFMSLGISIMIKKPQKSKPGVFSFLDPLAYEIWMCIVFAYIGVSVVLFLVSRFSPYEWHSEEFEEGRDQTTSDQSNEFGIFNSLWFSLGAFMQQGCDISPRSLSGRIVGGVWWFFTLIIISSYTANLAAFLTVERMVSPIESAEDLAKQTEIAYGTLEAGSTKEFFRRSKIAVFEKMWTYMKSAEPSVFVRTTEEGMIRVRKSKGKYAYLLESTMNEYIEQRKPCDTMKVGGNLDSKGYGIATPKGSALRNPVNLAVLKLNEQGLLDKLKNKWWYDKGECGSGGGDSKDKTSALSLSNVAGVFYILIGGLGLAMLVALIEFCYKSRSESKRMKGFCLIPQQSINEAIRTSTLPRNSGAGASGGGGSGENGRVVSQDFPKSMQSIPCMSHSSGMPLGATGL
T1 sequence (Q62645 28-1323, other chains not shown): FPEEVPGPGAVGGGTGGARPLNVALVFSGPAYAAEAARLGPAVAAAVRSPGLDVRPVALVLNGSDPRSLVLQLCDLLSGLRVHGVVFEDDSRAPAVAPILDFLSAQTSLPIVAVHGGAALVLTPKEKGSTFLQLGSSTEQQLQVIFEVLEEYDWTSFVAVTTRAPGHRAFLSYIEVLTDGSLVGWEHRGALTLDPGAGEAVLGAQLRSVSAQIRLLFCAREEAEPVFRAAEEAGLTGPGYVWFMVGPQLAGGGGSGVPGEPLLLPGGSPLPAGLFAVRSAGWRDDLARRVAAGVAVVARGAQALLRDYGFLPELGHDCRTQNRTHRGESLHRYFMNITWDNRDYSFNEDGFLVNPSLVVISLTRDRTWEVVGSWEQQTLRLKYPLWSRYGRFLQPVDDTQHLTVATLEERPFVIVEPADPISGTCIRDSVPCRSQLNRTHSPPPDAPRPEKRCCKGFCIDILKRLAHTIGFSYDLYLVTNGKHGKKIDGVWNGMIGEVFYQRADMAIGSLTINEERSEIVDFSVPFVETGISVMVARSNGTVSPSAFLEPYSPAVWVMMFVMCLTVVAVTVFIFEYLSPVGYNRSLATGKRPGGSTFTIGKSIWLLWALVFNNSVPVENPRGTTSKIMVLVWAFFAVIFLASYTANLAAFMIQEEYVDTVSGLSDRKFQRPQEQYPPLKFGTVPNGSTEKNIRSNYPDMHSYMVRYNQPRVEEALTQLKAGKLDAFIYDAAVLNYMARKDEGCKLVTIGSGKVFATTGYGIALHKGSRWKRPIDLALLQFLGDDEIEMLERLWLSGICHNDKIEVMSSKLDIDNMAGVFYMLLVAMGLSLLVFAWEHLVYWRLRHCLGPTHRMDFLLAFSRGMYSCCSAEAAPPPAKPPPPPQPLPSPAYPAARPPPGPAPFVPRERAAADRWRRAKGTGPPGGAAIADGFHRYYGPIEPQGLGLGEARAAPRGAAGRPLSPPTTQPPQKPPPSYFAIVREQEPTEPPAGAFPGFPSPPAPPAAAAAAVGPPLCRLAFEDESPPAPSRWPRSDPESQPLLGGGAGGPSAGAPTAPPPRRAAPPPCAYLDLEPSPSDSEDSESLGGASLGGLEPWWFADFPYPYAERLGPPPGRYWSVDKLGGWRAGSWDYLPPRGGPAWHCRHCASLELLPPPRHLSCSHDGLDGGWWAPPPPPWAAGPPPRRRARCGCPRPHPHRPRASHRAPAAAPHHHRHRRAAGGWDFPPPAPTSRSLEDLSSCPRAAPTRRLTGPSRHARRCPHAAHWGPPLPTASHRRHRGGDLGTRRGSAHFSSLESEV

inhibition of GluN1/GluN2D [1]: 2.2% ± 0.2% | inhibition at 10 µM ([2]; 10 µM OptoNAM-3 365 nm PSS, construct GluA1, read-out: Inhibition (%)): -6% | Inhibition, individual values ([2]; 10 µM OptoNAM-3 dark PSS (trans) as headed, second block): -0.02846 and -0.1048 and -0.04691 | Inhibition, individual values ([2]; 10 µM OptoNAM-3 dark PSS (trans), first block): -0.02273 and -0.0986 and -0.1111 | inhibition at 10 µM ([2]; 10 µM OptoNAM-3 dark PSS (trans), construct GluA1, read-out: Inhibition (%)): -7.7% | inhibition of GluA1 currents ([2]; 10 µM, dark PSS): no effect | inhibition at 10 µM ([2]; 10 µM, dark PSS, read-out: inhibition of GluA1 currents): -7.4 ± 2.7%
SMILES: c1ccc(/N=N/c2ccc(CCNc3ccncc3)cc2)cc1 [OptoNAM-3, (E)-N-(4-(Phenyldiazenyl)phenethyl)pyridin-4-amine]
inhibition of GluN1/GluN2A/GluN2B triheteromers [3]: 11.404% | inhibition of GluN1/GluN2A/GluN2B triheteromers ([3]; listed as trans-OptoNAM-3): 11.4% ± 0.9%
